A short description of data set [1]: Roughness (RMS) of spray-deposited fatty acid layer, dynamic confocal microscope. Particulars: for Roughness [μm] (about 10% RSD): sprayed on stainless steel, room temperature; for Roughness [μm] (N = 3) / Roughness [μm]: spray coating; for Roughness [μm]: N = 5. The data set is classed as physicochemical. The protocol:
Roughness and coating thickness were measured using a dynamic confocal microscope (Leica DCM3D); data processing was performed using SensoMap Turbo software. The coating thickness was calculated as the difference in height between the lower and upper levels of a confocal profile measured after a scratch implementation on the coating using a 25G needle. Spray coating was performed by spraying a selected organic solution of a selected fatty acid or a selected mixture of fatty acids on a desired surface using commercially available spraying gun. Gun adjustment is required to obtain the optimal coating properties. Exemplary adjustment parameters included distance from the treated surface, which was optimal at around 30 cm, and pulse duration, which was optimal at 1-5 seconds (e.g., 1-2 seconds). Other parameters are described hereinabove. Exemplary solutions were sprayed onto a surface of stainless steel, at room temperature. Roughness (RMS) and wettability measurements were performed as described hereinabove.

A short description of data set [2]: Wetting properties: water contact angle (CA) of fatty acid coatings. The data set is classed as physicochemical. Particulars: for Contact angle [°] (about 5% RSD): sprayed on stainless steel, room temperature; for Contact angle [°] (N = 3) / Contact angle [°]: spray coating; for Contact angle [°]: N = 5. The procedure:
Wetting properties of the coatings were characterized by CA and CAH measurements, which were performed using an Attension Theta Lite tensiometer and high-purity water or ethylene glycol (99.5%, Merck, Germany) droplets of 7 μL volume. Spray coating was performed by spraying a selected organic solution of a selected fatty acid or a selected mixture of fatty acids on a desired surface using commercially available spraying gun. Gun adjustment is required to obtain the optimal coating properties. Exemplary adjustment parameters included distance from the treated surface, which was optimal at around 30 cm, and pulse duration, which was optimal at 1-5 seconds (e.g., 1-2 seconds). Other parameters are described hereinabove. […] Roughness (RMS) and wettability measurements were performed as described hereinabove.

Data set [3] deals with Botrytis cinerea. Kind of data set: Anti-fungal effect of neat fatty acids on PDA agar plates. It counts as cell-based. Particulars: neat fatty acid at centre of PDA plate, 24° C., 72 hours. The procedure:
Anti-fungal studies: Botrytis cinerea (B. cinerea) isolate B05.10 was collected from Vitis vinifera. Botrytis cinerea spores were plated on potato dextrose agar (PDA) plates, each fatty acid powder was placed in the center of the plate, and the plates were then incubated at 24° C. for 72 hours. In the case of caprylic acid, a hole was punched in the middle of the agar plate in order to contain its liquid form.

Data set [4] is described as follows: Contact angle hysteresis (CAH) of spray-coated fatty acid coatings. It counts as physicochemical. Particulars: spray coating. The protocol:
Wetting properties of the coatings were characterized by CA and CAH measurements, which were performed using an Attension Theta Lite tensiometer and high-purity water or ethylene glycol (99.5%, Merck, Germany) droplets of 7 μL volume.

Another data set deals with E. coli. Kind of data set: Antimicrobial properties of fatty acid powders in liquid medium, drop-plate method. It counts as cell-based, Escherichia coli. Particulars: 50 milligram SFA powder per 1 mL suspension, 24 hours at 37° C.; control 1.2 ± 0.2 · 10^8. The protocol: (§1) Antimicrobial studies: The antimicrobial properties of fatty acid powders were evaluated by in liquid medium via the drop-plate method. One bacteria colony (E. coli or L. innocua) was incubated overnight in 4 mL Nutrient Broth (NB) liquid medium (Sigma Aldrich, Israel) at 37° C. under agitation (150 rpm) until the bacteria reached a stationary phase (about 10^9 CFU/mL). Then, the overnight bacteria culture was diluted in fresh NB medium (about 10^7 CFU/mL) and incubated for an additional 2 hours to achieve a logarithmic culture. Next, the logarithmic culture was diluted to 10^4 CFU mL^−1 in 1:100 NB medium.
(§2) 1 mL of the diluted bacterial suspension was incubated with 50 milligram of different SFA powders at 37° C. for 24 hours in 24-well-plates under agitation (100 rpm). The cultures were decimally diluted and 10 μL drops were transferred onto NB solid agar substrate. The colonies were counted after 24 hours incubation at 37° C.
(§3) To study the intrinsic bactericidal effect of the tested SFAs against both Gram-positive and Gram-negative bacteria, incubation of bacteria culture with powdered SFAs followed by colony counting was performed. Table 3 hereinbelow presents E. coli and L. innocua count in colony-forming unit (CFU) per milliliter, estimated by the drop-plate method following incubation for 24 hours at 37° C. with the SFA powders in respective liquid media.

A further data set relates to L. innocua. The data set is described as above. It counts as cell-based, Listeria innocua. Particulars: 24 hours at 37° C.; for L. innocua [CFU mL^−1]: 50 milligram SFA powder per 1 mL suspension, control 2.4 ± 0.2 · 10^5; for L. innocua growth inhibition: powdered SFA. The protocol:
as §1, §2, §3

Data set [5] has as its system Botrytis cinerea. Kind of data set: Ex-planta rose petals, damaged area after Botrytis cinerea spore droplets. Particulars: thick, medium and thin sprayed layers; 10^4 spores per milliliter, 30 μL droplets, 72 hours, room temperature. The procedure:
Botrytis cinerea culture was diluted in potato dextrose broth (PDB) medium to a final concentration of 10^4 spores per milliliter. 30 μL droplets were put on the coated leaves and uncoated control leaves and left in room temperature protected from light for 72 hours. A damaged area can be observed below and surrounding each droplet. The damaged area was then measured using a caliper along its long and the short directions.

Setting [6] is: Diethyl ether (Tb 36.4), 20 mg/ml.
The mark [7] stands for this setting: Diethyl ether (Tb 36.4), 50 mg/ml.
Setting [8] is: Diethyl ether (Tb 36.4), 50 mg/ml, listed as palmitic acid.

`CCCCCCCCCCCC(=O)O` [Lauric acid]: the “Roughness [μm] (about 10% RSD)” value in data set [1] (EtOH, 10 mg/ml) is 5.2 μm. Further, the “Contact angle [°] (about 5% RSD)” value in data set [2] (EtOH, 10 mg/ml) was determined as 113 °.

With `CCCCCCCCCCCCCC(=O)O` [Myristic acid], the “Roughness [μm] (about 10% RSD)” value in data set [1] (Acetone, 10 mg/ml) came to 4.2 μm; in data set [1] (Diethyl ether, 20 mg/ml), 5.6 μm; in data set [1] (EtOH, 10 mg/ml), 4.7 μm. Besides, the “Contact angle [°] (about 5% RSD)” value in data set [2] (Acetone, 10 mg/ml) is 120 °; in data set [2] (Diethyl ether, 20 mg/ml), 132 °; in data set [2] (EtOH, 10 mg/ml), 115 °.

As for `CCCCCCCCCCCCCCCCCCCCCC(=O)O` [Behenic acid], the “Roughness [μm] (about 10% RSD)” value in data set [1] (Diethyl ether, 2 mg/ml) is recorded as 4.2 μm. Besides, the “Contact angle [°] (about 5% RSD)” value in data set [2] (Diethyl ether, 2 mg/ml) turned out to be 156 °. The “anti-fungal effect against Botrytis cinerea growth” value (shortened to “anti-fungal effect”) with Botrytis cinerea [3] is “do not present any anti-fungal effect”.

As for `CCCCCCCC(=O)O` [caprylic acid, Caprylic acid], the “anti-fungal effect” value in the data set with Botrytis cinerea [3] was “complete inhibition”.

As for `CCCCCCCCCCCCCCCCCC(=O)O` [Stearic acid], the “Roughness [μm] (N = 3)” value was found to be 11.9 ± 3.7 μm in data set [1] (Acetone (Tb 56.0), 10 mg/ml); 8.0 ± 0.6 μm in data set [1] (setting [7]); 1.5 ± 0.06 μm in data set [1] (EtOH (Tb 78.4), 10 mg/ml). The “Roughness [μm]” value was 7.5 ± 0.9 μm in data set [1] (Acetone (Tb 56.0), 20 mg/ml); 6.1 ± 1.0 μm in data set [1] (setting [6]); 1.1 ± 0.1 μm in data set [1] (EtOH (Tb 78.4), 20 mg/ml). Besides, the “Roughness [μm] (about 10% RSD)” value turned out to be 1.3 μm in data set [1] (Acetone, 5 mg/ml); 7.5 μm in data set [1] (Acetone, 20 mg/ml); 5.7 μm in data set [1] (Diethyl ether, 15 mg/ml); 6.1 μm in data set [1] (Diethyl ether, 20 mg/ml); 0.7 μm in data set [1] (EtOH, 5 mg/ml); 1.1 μm in data set [1] (EtOH, 20 mg/ml). Also, the “Roughness [μm] (about 10% RSD)” value in data set [1] (MeOH, 4 mg/ml) is 3.5 μm. For the same compound, the “effect of adding a food coloring agent on water contact angle” value in data set [2] (0.02 gram/ml in diethyl ether plus coloring agent, spray-coated on glass) is recorded as “no change in water contact angle”. Besides, the “Contact angle [°] (N = 3)” value in data set [2] (Acetone (Tb 56.0), 10 mg/ml) was found to be 156.4 ± 1.5 °; in data set [2] (setting [7]) it was 165.7 ± 4.4 °; in data set [2] (EtOH (Tb 78.4), 10 mg/ml), 113.2 ± 4.6 °. The “Contact angle [°]” value in data set [2] (Acetone (Tb 56.0), 20 mg/ml) is on record as 156.5 ± 5.5 °; in data set [2] (setting [6]), 165.3 ± 1.1 °; in data set [2] (EtOH (Tb 78.4), 20 mg/ml), 118.3 ± 5.8 °. Also, the “Contact angle [°] (about 5% RSD)” value was determined as 145 ° in data set [2] (Acetone, 5 mg/ml); 156 ° in data set [2] (Acetone, 20 mg/ml); 149 ° in data set [2] (Diethyl ether, 15 mg/ml); 165 ° in data set [2] (Diethyl ether, 20 mg/ml); 110 ° in data set [2] (EtOH, 5 mg/ml); 118 ° in data set [2] (EtOH, 20 mg/ml). In addition, the “Contact angle [°] (about 5% RSD)” value in data set [2] (MeOH, 4 mg/ml) was found to be 136 °. The “CAH [°] (N = 3)” value was found to be 2.3 ± 1.2 ° in data set [4] (Acetone (Tb 56.0), 10 mg/ml); 2.0 ± 1.7 ° in data set [4] (Acetone (Tb 56.0), 20 mg/ml); 2.2 ± 1.1 ° in data set [4] (setting [6]); 1.7 ± 1.4 ° in data set [4] (setting [7]); 27.5 ± 7.0 ° in data set [4] (EtOH (Tb 78.4), 10 mg/ml); 11 ± 1.2 ° in data set [4] (EtOH (Tb 78.4), 20 mg/ml). In the data set with E. coli, the “E. coli [CFU mL^−1]” value is recorded as 1.8 ± 0.05 · 10^8 CFU mL^−1. In addition, the “L. innocua [CFU mL^−1]” value in the data set with L. innocua is listed as 1.9 ± 0.5 · 10^4 CFU mL^−1. Further, the “L. innocua growth inhibition” value in the data set on L. innocua is given as “inhibited by an order of magnitude”.

Turning to `CCCCCCCCCCCCCCCC(=O)O` [Palmitic acid], the “Roughness [μm] (N = 3)” value in data set [1] (setting [7]) worked out at 4.4 ± 0.4 μm. Also, the “Roughness [μm] (about 10% RSD)” value in data set [1] (Acetone, 15 mg/ml) is 5.0 μm; in data set [1] (Diethyl ether, 10 mg/ml), 3.2 μm; in data set [1] (Diethyl ether, 20 mg/ml), 4.8 μm; in data set [1] (EtOH, 10 mg/ml), 2.3 μm; in data set [1] (MeOH, 10 mg/ml), 3.6 μm. Further, the results for the “Contact angle [°] (N = 3)” value in data set [2] (setting [7]) and in data set [2] (setting [8]) were 156.6 ± 2.3 ° and 156.6 °, respectively. For the same compound, in data set [2] (spray-coated), the CA angle result is given as “above 150 °”. In addition, the “Contact angle [°] (about 5% RSD)” value came out at 140 ° in data set [2] (Acetone, 15 mg/ml); 145 ° in data set [2] (Diethyl ether, 10 mg/ml); 148 ° in data set [2] (Diethyl ether, 20 mg/ml); 111 ° in data set [2] (EtOH, 10 mg/ml); 137 ° in data set [2] (MeOH, 10 mg/ml). In addition, the CA entry in data set [2] (thermally deposited on glass) is on record as “below 140 °”. Further, the “CAH [°] (N = 3)” value amounted to 11.1 ± 4.6 ° in data set [4] (setting [7]) and 11.1 ° in data set [4] (setting [8]). Also, the “E. coli [CFU mL^−1]” value in the data set with E. coli is on record as 1.4 ± 0.6 · 10^8 CFU mL^−1. Further, in the data set with L. innocua, the “L. innocua [CFU mL^−1]” value was 1.7 ± 0.5 · 10^4 CFU mL^−1. Further, in the data set with L. innocua, the “L. innocua growth inhibition” value was “inhibited by an order of magnitude”. For the same compound, in the data set on Botrytis cinerea [5], the “protection of rose petals against damage by Botrytis cinerea” value is “most effectively inhibit damage propagation”. For the same compound, in the data set on Botrytis cinerea [3], the “anti-fungal effect” value is listed as “do not present any anti-fungal effect”.

For `CCCCCCCCCCCCCCCCCCCC(=O)O` [Arachidic acid], the “Roughness [μm] (about 10% RSD)” value in data set [1] (Acetone, 2 mg/ml) was 2.7 μm; in data set [1] (Diethyl ether, 10 mg/ml), 4.3 μm; in data set [1] (EtOH, 1 mg/ml), 0.9 μm. Moreover, the “Contact angle [°] (about 5% RSD)” value in data set [2] (Acetone, 2 mg/ml) was determined as 134 °; in data set [2] (Diethyl ether, 10 mg/ml), 152 °; in data set [2] (EtOH, 1 mg/ml), 119 °. Moreover, the “E. coli [CFU mL^−1]” value in the data set on E. coli was 9.6 ± 3.2 · 10^7 CFU mL^−1. Besides, in the data set on L. innocua, the “L. innocua [CFU mL^−1]” value was determined as 0 CFU mL^−1. Also, in the data set with L. innocua, the “L. innocua growth inhibition” value is “completely inhibited”.

Regarding `C/C=C/C=C/C(=O)O` [sorbic acid], in data set [2] (preliminary tests, data not shown), the “properties of sprayed coating as single component” value is reported as “hydrophilic coating which was not stable over time”. Also, the “anti-fungal effect” value in the data set on Botrytis cinerea [3] is reported as “significant growth inhibition”.
